IC50 data for 38 compounds are collected here from patent US11866431B2, “Bicyclic compounds” (Vivace Therapeutics, Inc., priority 2018, dated 2024).

SMILES strings stand for the structures. pIC50: −log10 of the molar value.

The subject of this experiment is 8XTBD luciferase reporter (YAP reporter) in HEK293T cells. Briefly: YAP Reporter Assay. It is filed as cell-based. The note with it: Homo sapiens, HEK-293T; HEK293T cells stably transfected with 8XTBD luciferase reporter and pRLTK; 24-hr incubation; top concentration 3 μM; read-out: Firefly Luciferase IC50. The procedure, abridged: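 Dual-luciferase read-out after 24 h compound exposure at 37° C, 5% CO2; IC50 and maximum inhibition given separately for 8XTBD-firefly and TK-renilla signals. Stable HEK293T reporter cells, 3×10^3/well, received 10-point 1:3 series starting 3 μM final, in quadruplicate.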
Consider `COc1cc(-c2ccc(C(F)(F)F)cc2F)c2ncc(C(=O)N[C@@H](C)c3ccccn3)cc2c1` [Compound 232, (S)-8-(2-Fluoro-4-(trifluoromethyl)phenyl)-6-methoxy-N-(1-(pyridin-2-yl)ethyl)quinoline-3-carboxamide], for which the pIC50 was greater than 7.00.
Regarding `COc1cc(-c2ccc(C(F)(F)F)cc2F)c2ncc(C(=O)N[C@H](C)CO)cc2c1` [Compound 233, (R)-8-(2-Fluoro-4-(trifluoromethyl)phenyl)-N-(1-hydroxypropan-2-yl)-6-methoxyquinoline-3-carboxamide], the pIC50 was greater than 7.00.
The figure for `COCCC(=O)Nc1cccc(CNC(=O)c2ccc3c(-c4ccc(C(F)(F)F)cc4)cccc3c2)c1` [Compound 234, N-(3-(3-methoxypropanamido)benzyl)-5-(4-(trifluoromethyl)phenyl)-2-naphthamide] is greater than 7.00; for `Nc1cccc(CNC(=O)c2ccc3c(-c4ccc(C(F)(F)F)cc4)cccc3c2)c1` [Compound 235, N-(3-aminobenzyl)-5-(4-(trifluoromethyl)phenyl)-2-naphthamide] it is greater than 7.00; for `CC(C)(C)OC(=O)Nc1cccc(CNC(=O)c2ccc3c(-c4ccc(C(F)(F)F)cc4)cccc3c2)c1` [Compound 236, Tert-Butyl (3-((5-(4-(trifluoromethyl)phenyl)-2-naphthamido)methyl)phenyl)carbamate] it is 6.00 to 7.00.
Then `CC(=O)Nc1cccc(CNC(=O)c2ccc3c(-c4ccc(C(F)(F)F)cc4)cccc3c2)c1` [Compound 237, N-(3-acetamidobenzyl)-5-(4-(trifluoromethyl)phenyl)-2-naphthamide], with greater than 7.00; and `O=C(NCCCCCO)c1ccc2c(-c3ccc(C(F)(F)F)cc3)cccc2c1` [Compound 238, N-(5-hydroxypentyl)-5-[4-(trifluoromethyl)phenyl]naphthalene-2-carboxamide], with 6.00 to 7.00.
The figure for `O=C(NCc1ccccn1)c1ccc2c(-c3ccc(C(F)(F)F)cc3)cccc2c1` [Compound 239, N-(pyridin-2-ylmethyl)-5-(4-(trifluoromethyl)phenyl)-2-naphthamide] is greater than 7.00; for `COc1cccc(CNC(=O)c2ccc3c(-c4ccc(C(F)(F)F)cc4)cccc3c2)c1` [Compound 240, N-(3-methoxybenzyl)-5-(4-(trifluoromethyl)phenyl)-2-naphthamide] it is 6.00 to 7.00.
Turning to `O=C(NCc1ccccc1)c1ccc2c(-c3ccc(C(F)(F)F)cc3)cccc2c1` [Compound 241, N-benzyl-5-(4-(trifluoromethyl)phenyl)-2-naphthamide], the pIC50 was greater than 7.00.
`C[C@@H](NC(=O)c1ccc2c(-c3ccc(C(F)(F)F)cc3)cccc2c1)c1ncc[nH]1` [Compound 242, (R)—N-(1-(1H-imidazol-2-yl)ethyl)-5-(4-(trifluoromethyl)phenyl)-2-naphthamide]: the pIC50 is 6.00 to 7.00.
Regarding `C[C@H](NC(=O)c1ccc2c(-c3ccc(C(F)(F)F)cc3)cccc2c1)c1ncc[nH]1` [Compound 243, (S)—N-(1-(1H-imidazol-2-yl)ethyl)-5-(4-(trifluoromethyl)phenyl)-2-naphthamide], the pIC50 was 6.00 to 7.00.
For the compound `C[C@H](NC(=O)c1ccc2c(-c3ccc(C(F)(F)F)cc3)cccc2n1)c1ccccn1` [Compound 244, (S)—N-(1-(Pyridin-2-yl)ethyl)-5-(4-(trifluoromethyl)phenyl)quinoline-2-carboxamide], the pIC50 is greater than 7.00.
As for `COC[C@H](C)NC(=O)c1ccc2c(-c3ccc(C(F)(F)F)cc3)cccc2n1` [Compound 246, (S)—N-(1-Methoxypropan-2-yl)-5-(4-(trifluoromethyl)phenyl)quinoline-2-carboxamide], the pIC50 was 6.00 to 7.00.
For `C[C@H](CO)NC(=O)c1ccc2c(-c3ccc(C(F)(F)F)cc3)cccc2n1` [Compound 247, (R)—N-(1-Hydroxypropan-2-yl)-5-(4-(trifluoromethyl)phenyl)quinoline-2-carboxamide], the pIC50 was 6.00 to 7.00.
The figure for `CC(C)NC(=O)c1ccc2c(-c3ccc(C(F)(F)F)cc3)cccc2n1` [Compound 248, N-isopropyl-5-(4-(trifluoromethyl)phenyl)quinoline-2-carboxamide] is 6.00 to 7.00.
Consider `O=C(NCCCCCl)c1ccc2c(-c3ccc(C(F)(F)F)cc3)cccc2c1` [Compound 249, N-(4-chlorobutyl)-5-(4-(trifluoromethyl)phenyl)-2-naphthamide], for which the pIC50 is 6.00 to 7.00.
The figure for `O=C(NC1(c2ccccn2)CC1)c1ccc2c(-c3ccc(C(F)(F)F)cc3)cccc2c1` [Compound 250, N-(1-(pyridin-2-yl)cyclopropyl)-5-(4-(trifluoromethyl)phenyl)-2-naphthamide] is 6.00 to 7.00; for `C[C@H](NC(=O)c1ccc2c(-c3ccc(C(F)(F)F)cc3)cccc2c1)C1CCC1` [Compound 251, (S)—N-(1-cyclobutylethyl)-5-(4-(trifluoromethyl)phenyl)-2-naphthamide] it is 6.00 to 7.00.
For `C[C@@H](NC(=O)c1ccc2c(-c3ccc(C(F)(F)F)cc3)cccc2c1)C1CCC1` [Compound 252, (R)—N-(1-cyclobutylethyl)-5-(4-(trifluoromethyl)phenyl)-2-naphthamide], the pIC50 was 6.00 to 7.00.
In the case of `C[C@H](NC(=O)c1ccc2c(-c3ccc(C(F)(F)F)cc3)cccc2c1)c1nccn1C` [Compound 253, (S)—N-(1-(1-methyl-1H-imidazol-2-yl)ethyl)-5-(4-(trifluoromethyl)phenyl)-2-naphthamide], the pIC50 was 5.52 to 6.00.
On to `C[C@@H](NC(=O)c1ccc2c(-c3ccc(C(F)(F)F)cc3)cccc2c1)c1nccn1C` [Compound 254, (R)—N-(1-(1-methyl-1H-imidazol-2-yl)ethyl)-5-(4-(trifluoromethyl)phenyl)-2-naphthamide], for which the pIC50 was 6.00 to 7.00.
The figure for `O=C(NCCCCO)c1ccc2c(-c3ccc(C(F)(F)F)cc3)cccc2c1` [Compound 255, N-(4-hydroxybutyl)-5-(4-(trifluoromethyl)phenyl)-2-naphthamide] is 6.00 to 7.00.
Consider `[N-]=[N+]=NCCCNC(=O)c1ccc2c(-c3ccc(C(F)(F)F)cc3)cccc2c1` [Compound 256, N-(3-azidopropyl)-5-(4-(trifluoromethyl)phenyl)-2-naphthamide], for which the pIC50 is 6.00 to 7.00.
The figure for `O=C(NC1(CO)CC1)c1ccc2c(-c3ccc(C(F)(F)F)cc3)cccc2c1` [Compound 257, N-(1-(hydroxymethyl)cyclopropyl)-5-(4-(trifluoromethyl)phenyl)-2-naphthamide] is greater than 7.00; for `C[C@@H](NC(=O)c1ccc2c(-c3ccc(C(F)(F)F)cc3)cccc2c1)C(N)=O` [Compound 258, (R)—N-(1-amino-1-oxopropan-2-yl)-5-(4-(trifluoromethyl)phenyl)-2-naphthamide] it is 6.00 to 7.00.
`C[C@H](NC(=O)c1ccc2c(-c3ccc(C(F)(F)F)cc3)cccc2c1)C(N)=O` [Compound 259, (S)—N-(1-amino-1-oxopropan-2-yl)-5-(4-(trifluoromethyl)phenyl)-2-naphthamide]: the pIC50 was 6.00 to 7.00.
For the compound `O=C(NC(CO)c1ccccn1)c1cnc2c(-c3ccc(C(F)(F)F)cc3)cccc2c1` (centres unmarked) [Compound 260, N-[2-hydroxy-1-(2-pyridyl)ethyl]-8-[4-(trifluoromethyl)phenyl]quinoline-3-carboxamide], the pIC50 was greater than 7.00.
`[N-]=[N+]=NCCNC(=O)c1ccc2c(-c3ccc(C(F)(F)F)cc3)cccc2c1` [Compound 261, N-(2-azidoethyl)-5-(4-(trifluoromethyl)phenyl)-2-naphthamide]: the pIC50 was greater than 7.00.
Then `CC(C)(NC(=O)c1ccc2c(-c3ccc(C(F)(F)F)cc3)cccc2c1)c1ccccn1` [Compound 262, N-(2-(pyridin-2-yl)propan-2-yl)-5-(4-(trifluoromethyl)phenyl)-2-naphthamide], with 6.00 to 7.00; and `CC(C)(CO)NC(=O)c1ccc2c(-c3ccc(C(F)(F)F)cc3)cccc2c1` [Compound 263, N-(1-hydroxy-2-methylpropan-2-yl)-5-(4-(trifluoromethyl)phenyl)-2-naphthamide], with 6.00 to 7.00; and `CC(C)(C)NC(=O)c1ccc2c(-c3ccc(C(F)(F)F)cc3)cccc2c1` [Compound 264, N-(tert-butyl)-5-(4-(trifluoromethyl)phenyl)-2-naphthamide], with 6.00 to 7.00.
For `O=C(NCCCCl)c1ccc2c(-c3ccc(C(F)(F)F)cc3)cccc2c1` [Compound 265, N-(3-chloropropyl)-5-(4-(trifluoromethyl)phenyl)-2-naphthamide], the pIC50 is 6.00 to 7.00.
The figure for `C[C@H](NC(=O)c1cnc2c(-c3ccc(C(F)(F)F)cc3)cccc2n1)c1ccccn1` [Compound 266, (S)—N-(1-(pyridin-2-yl)ethyl)-5-(4-(trifluoromethyl)phenyl)quinoxaline-2-carboxamide] is 6.00 to 7.00; for `C[C@H](CO)NC(=O)c1cnc2c(-c3ccc(C(F)(F)F)cc3)cccc2n1` [Compound 267, (R)—N-(1-hydroxypropan-2-yl)-5-(4-(trifluoromethyl)phenyl)quinoxaline-2-carboxamide] it is 6.00 to 7.00.
Then `CC(C)NC(=O)c1cnc2c(-c3ccc(C(F)(F)F)cc3)cccc2n1` [Compound 268, N-Isopropyl-5-(4-(trifluoromethyl)phenyl)quinoxaline-2-carboxamide], with 6.00 to 7.00.
Turning to `C[C@H](NC(=O)c1ccc2c(-c3ccc(C(F)(F)F)cc3)cccc2c1)C1COC1` [Compound 269, (S)—N-(1-(oxetan-3-yl)ethyl)-5-(4-(trifluoromethyl)phenyl)-2-naphthamide], the pIC50 is greater than 7.00.
Then `C[C@@H](NC(=O)c1ccc2c(-c3ccc(C(F)(F)F)cc3)cccc2c1)C1COC1` [Compound 270, (R)—N-(1-(oxetan-3-yl)ethyl)-5-(4-(trifluoromethyl)phenyl)-2-naphthamide], with 6.00 to 7.00.
